These compounds were tested against T1, androgen receptor (AR) (Homo sapiens, UniProt P10275, T878A) (assay: Androgen-induced PSA (6.1 kb)-luciferase reporter assay in LNCaP cells (R1881 1 nM)). Details: 24 h, read-out: PSA-Luc IC50 Range.
T1 sequence (P10275 1-920 T878A): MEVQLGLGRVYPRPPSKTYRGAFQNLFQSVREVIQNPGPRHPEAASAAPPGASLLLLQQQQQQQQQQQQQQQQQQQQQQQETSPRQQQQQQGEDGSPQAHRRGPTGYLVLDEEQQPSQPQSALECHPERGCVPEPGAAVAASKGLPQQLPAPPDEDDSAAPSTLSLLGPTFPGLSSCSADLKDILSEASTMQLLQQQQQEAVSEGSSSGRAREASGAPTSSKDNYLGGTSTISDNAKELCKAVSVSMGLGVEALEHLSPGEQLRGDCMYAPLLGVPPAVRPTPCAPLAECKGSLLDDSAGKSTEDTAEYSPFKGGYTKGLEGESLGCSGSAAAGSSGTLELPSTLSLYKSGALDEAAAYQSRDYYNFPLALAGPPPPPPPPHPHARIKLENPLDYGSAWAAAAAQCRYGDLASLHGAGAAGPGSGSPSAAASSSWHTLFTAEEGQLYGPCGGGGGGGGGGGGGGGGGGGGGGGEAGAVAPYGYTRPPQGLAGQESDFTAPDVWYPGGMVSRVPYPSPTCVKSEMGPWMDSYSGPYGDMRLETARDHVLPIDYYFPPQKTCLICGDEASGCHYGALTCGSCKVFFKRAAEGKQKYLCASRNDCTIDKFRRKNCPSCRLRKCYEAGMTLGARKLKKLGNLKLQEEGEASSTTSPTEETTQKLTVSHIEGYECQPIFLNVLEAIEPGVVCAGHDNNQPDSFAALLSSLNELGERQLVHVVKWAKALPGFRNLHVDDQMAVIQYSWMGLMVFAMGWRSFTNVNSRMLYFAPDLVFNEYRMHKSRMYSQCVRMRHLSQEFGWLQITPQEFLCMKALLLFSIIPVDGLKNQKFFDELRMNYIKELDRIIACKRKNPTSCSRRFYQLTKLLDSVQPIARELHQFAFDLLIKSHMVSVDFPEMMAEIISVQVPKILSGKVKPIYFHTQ
Format: cell-based
Set-up: endogenous in cells; host or cells: LNCaP
Protocol: The PSA (6.1 kb)-luciferase reporter contains functional AREs (androgen response elements) to which AR binds in response to androgen to induce luciferase activity. LNCaP cells were transiently transfected with the PSA (6.1 kb)-luciferase reporter for 24 h, and then pretreated with vehicle (DMSO) or indicated concentration of representative compounds for one hour prior to the addition of synthetic androgen, R1881 (1 nM). After 24 h of incubation with R1881, the cells were harvested, and relative luciferase activities were determined (FIG. 1). To determine the IC50, treatments were normalized to vehicle control activity induced by R1881 (Table 2).
Luciferase Assay: Cells were lysed using Passive Lysis Buffer (Promega) and then collected into V-bottom 96-well tissue culture plates. Lysates were centrifuged at 4° C. for 5 minutes at 3000 rpm. To measure luminescence of LNCaP cell lysates the Firefly Luciferase Assay System (Promega) was employed, according to manufacturer's protocol. Relative luminescence units (RLU) in cell lysates were detected for 10 seconds using Promega GloMax-Multi Detection Luminometer (Promega). Values were normalized to protein content. GraphPad Prism graphing software was used to calculate IC50 values.
Statistical analyses were performed using GraphPad Prism (Version 6.01 for Windows; La Jolla, Calif., USA). Comparisons between treatment and control groups were compared using Two-Way ANOVA with post-hoc Dunnett's and Tukey's tests. Differences were considered statistically significant at P values less than 0.05.
An IC50 of 0.5 to 2 µM was found for Cc1nc(NS(C)(=O)=O)ncc1COc1ccc(C(C)(C)c2cc(Cl)c(OCCCl)c(C#N)c2)cc1 [Compound A91] in this work.
An IC50 of 0.5 to 2 µM was found for Cn1nc(NS(C)(=O)=O)cc1COc1ccc(C(C)(C)c2cc(Cl)c(OCCCl)c(C#N)c2)cc1 [Compound A93] in this work.
An IC50 of 0.5 to 2 µM was found for CC(C)(c1ccc(OCc2cncnc2N)cc1)c1cc(Cl)c(OCCCl)c(C#N)c1 [Compound A94] in this work.
With CC(C)(c1ccc(OCc2nccnc2N)cc1)c1cc(Cl)c(OCCCl)c(C#N)c1 [Compound A95] the IC50 was < 0.5 µM.
For CC(C)(c1ccc(OCc2ccnc(NS(C)(=O)=O)c2N)cc1)c1cc(Cl)c(OCCCl)c(C#N)c1 [Compound A97], the IC50 was < 0.5 µM.
An IC50 of 0.5 to 2 µM was found for CC(C)(c1ccc(OCc2ncncc2N)cc1)c1cc(Cl)c(OCCCl)c(C#N)c1 [Compound A98] in this work.
An IC50 of 0.5 to 2 µM was found for CC(C)(c1ccc(OCc2cnc(NS(C)(=O)=O)nc2N2CCCCC2)cc1)c1cc(Cl)c(OCCCl)c(C#N)c1 [Compound A99] in this work.
An IC50 of 0.5 to 2 µM was found for CC(C)(c1ccc(OCc2ccnc(NS(C)(=O)=O)n2)c(Cl)c1)c1cc(Cl)c(OCCCl)c(C#N)c1 [Compound A102] in this work.
With CC(C)(c1ccc(OCc2ccnc(NS(C)(=O)=O)n2)cc1)c1cnc(OCCCl)c(Cl)c1 [Compound A103] the IC50 was > 2 µM.
In the case of CCCOc1ncc(C(C)(C)c2ccc(OCc3ccnc(NS(C)(=O)=O)n3)cc2)cc1Cl [Compound A104], the IC50 is reported as > 2 µM.
With CC(C)(c1ccc(OCc2ccnc(NS(C)(=O)=O)n2)cc1)c1cnc(N2CCCCC2)c(Cl)c1 [Compound A105] the IC50 was > 2 µM.
For CC(C)(c1ccc(OCc2ccnc(NS(C)(=O)=O)n2)cc1)c1cnc(N2CC3(CCC3)C2)c(Cl)c1 [Compound A106], the IC50 was > 2 µM.
With CC(C)(c1ccc(-c2ccc3nc(NS(C)(=O)=O)nnc3c2)cc1)c1cc(Cl)c(OCCCl)c(C#N)c1 [Compound A108] the IC50 was > 2 µM.
CC(C)(c1ccc(-c2ccc3ncncc3c2)cc1)c1cc(Cl)c(OCCCl)c(C#N)c1 [Compound A110] was tested, and the IC50 was > 2 µM.
CC(C)(c1ccc(-c2ccc3c(cnn3S(C)(=O)=O)c2)cc1)c1cc(Cl)c(OCCCl)c(C#N)c1 [Compound A111] was tested, and the IC50 was > 2 µM.
For CC(C)(c1ccc(-c2ccn3c(S(C)(=O)=O)c(N)nc3c2)cc1)c1cc(Cl)c(OCCCl)c(C#N)c1 [Compound A112], the IC50 was > 2 µM.
In the case of CS(=O)(=O)Nc1nccc(COc2ccc3c(ccn3-c3ccn(CCCCl)c(=O)c3)c2)n1 [Compound A115], the IC50 is reported as > 2 µM.
An IC50 of 0.5 to 2 µM was found for CC(C)(c1ccc(Oc2cccc3nc(NS(C)(=O)=O)ncc23)cc1)c1cc(Cl)c(OCCCl)c(C#N)c1 [Compound A117] in this work.
In the case of CC(C)(c1ccc(OCc2cnc(NS(C)(=O)=O)nc2N2CCNCC2)cc1)c1cc(Cl)c(OCCCl)c(C#N)c1 [Compound A120], the IC50 is reported as < 0.5 µM.
With CC(C)(c1ccc(-c2ccc3cnc(NS(C)(=O)=O)nc3c2)cc1)c1cc(Cl)c(OCCCl)c(C#N)c1 [Compound A121] the IC50 was > 2 µM.
For CS(=O)(=O)Nc1ncc2cc(-c3ccc4c(ccn4-c4cc(Cl)c(OCCCl)c(C#N)c4)c3)ccc2n1 [Compound A122], the IC50 was > 2 µM.
CS(=O)(=O)N1CCN(Cc2ccc3c(ccn3-c3cc(Cl)c(OCCCl)c(C#N)c3)c2)CC1 [Compound A123] was tested, and the IC50 was > 2 µM.
An IC50 of 0.5 to 2 µM was found for CS(=O)(=O)N1CCN(CCc2ccc3c(ccn3-c3cc(Cl)c(OCCCl)c(C#N)c3)c2)CC1 [Compound A124] in this work.
In the case of CS(=O)(=O)N1CCN(CCc2ccc3c(ccn3-c3cc(Cl)c(OCCCl)c(C#N)c3)c2)C(=O)C1 [Compound A125], the IC50 is reported as > 2 µM.
An IC50 of 0.5 to 2 µM was found for Cn1nc(NC(=O)C(F)(F)F)cc1COc1ccc(C(C)(C)c2cc(Cl)c(OCCCl)c(C#N)c2)cc1 [Compound A127] in this work.
An IC50 of 0.5 to 2 µM was found for CS(=O)(=O)Nc1nccc(COc2ccc3c(ccn3-c3cc(Cl)c(OC=C(Cl)Cl)c(C#N)c3)c2)n1 [Compound A128] in this work.
In the case of CS(=O)(=O)NC12CC(C(=O)Nc3ccc4c(ccn4-c4cc(Cl)c(OCCCl)c(C#N)c4)c3)(C1)C2 [Compound A133], the IC50 is reported as > 2 µM.
For CS(=O)(=O)NC12CC(NC(=O)c3ccc4c(ccn4-c4cc(Cl)c(OCCCl)c(C#N)c4)c3)(C1)C2 [Compound A134], the IC50 was > 2 µM.
An IC50 of 0.5 to 2 µM was found for CS(=O)(=O)N[C@H]1C[C@@H](COc2ccc3c(ccn3-c3cc(Cl)c(OCCCl)c(C#N)c3)c2)C1 [Compound A136] in this work.
An IC50 of 0.5 to 2 µM was found for CS(=O)(=O)N1CC(F)(COc2ccc3c(ccn3-c3cc(Cl)c(OCCCl)c(C#N)c3)c2)C1 [Compound A137] in this work.
CS(=O)(=O)NC12CC(COc3ccc4c(-c5cc(Cl)c(OCCCl)c(C#N)c5)csc4c3)(C1)C2 [Compound A138] was tested, and the IC50 was > 2 µM.
With Cc1cc2cc(OCC34CC(NS(C)(=O)=O)(C3)C4)ccc2n1-c1cc(Cl)c(OCCCl)c(C#N)c1 [Compound A139] the IC50 was > 2 µM.
CC(c1cc(Cl)c(OCCCl)c(C#N)c1)n1ccc(-c2ccc3nc(NS(C)(=O)=O)ncc3c2)n1 (centres unmarked) [Compound A142] was tested, and the IC50 was > 2 µM.
CS(=O)(=O)Nc1ncc(Cn2ncc3ccc(-c4cc(Cl)c(OCCCl)c(C#N)c4)cc32)cn1 [Compound A143] was tested, and the IC50 was > 2 µM.
An IC50 of 0.5 to 2 µM was found for CS(=O)(=O)NC12CC(NCc3ccc4c(ccn4-c4cc(Cl)c(OCCCl)c(C#N)c4)c3)(C1)C2 [Compound A145] in this work.
An IC50 of 0.5 to 2 µM was found for CS(=O)(=O)NC12CC(CNc3ccc4c(ccn4-c4cc(Cl)c(OCCCl)c(C#N)c4)c3)(C1)C2 [Compound A146] in this work.
With CS(=O)(=O)Nc1nccc(COc2ccc3cc(-c4cc(Cl)c(OCCCl)c(C#N)c4)ccc3c2)n1 [Compound A148] the IC50 was > 2 µM.
An IC50 of 0.5 to 2 µM was found for CC(C)(c1ccc(OCC2CN(S(C)(=O)=O)C2)cc1)c1cc(Cl)c(OCCCl)c(C#N)c1 [Compound A151] in this work.
For CS(=O)(=O)Nc1ncc2ccc(COc3cccc(-c4cc(Cl)c(OCCCl)c(C#N)c4)c3)cc2n1 [Compound A152], the IC50 was > 2 µM.
In the case of CS(=O)(=O)Nc1ncc2c(n1)CN(Cc1ccc3c(ccn3-c3cc(Cl)c(OCCCl)c(C#N)c3)c1)CC2 [Compound A153], the IC50 is reported as > 2 µM.
In the case of CS(=O)(=O)Nc1ncc2c(n1)CCN(Cc1ccc3c(ccn3-c3cc(Cl)c(OCCCl)c(C#N)c3)c1)C2 [Compound A154], the IC50 is reported as > 2 µM.
An IC50 of 0.5 to 2 µM was found for Cn1cc(-c2cc(Cl)c(OCCCl)c(C#N)c2)c2ccc(OCc3ccnc(NS(C)(=O)=O)n3)cc21 [Compound A157] in this work.
An IC50 of 0.5 to 2 µM was found for CS(=O)(=O)N1CC(O)(COc2ccc3c(ccn3-c3cc(Cl)c(OCCCl)c(C#N)c3)c2)C1 [Compound A158] in this work.
An IC50 of 0.5 to 2 µM was found for CC(Oc1ccc2c(ccn2-c2cc(Cl)c(OCCCl)c(C#N)c2)c1)C1CN(S(C)(=O)=O)C1 (centres unmarked) [Compound A159] in this work.
For CS(=O)(=O)Nc1ncc(Cn2cc3ccc(-c4cc(Cl)c(OCCCl)c(C#N)c4)cc3n2)cn1 [Compound A160], the IC50 was > 2 µM.
CS(=O)(=O)Nc1ncc(Cn2cc3c(-c4cc(Cl)c(OCCCl)c(C#N)c4)cccc3n2)cn1 [Compound A161] was tested, and the IC50 was > 2 µM.
An IC50 of 0.5 to 2 µM was found for CS(=O)(=O)N1CC2(CC(COc3ccc4c(ccn4-c4cc(Cl)c(OCCCl)c(C#N)c4)c3)C2)C1 [Compound A162] in this work.
An IC50 of 0.5 to 2 µM was found for CS(=O)(=O)N1CC2(CC(Oc3ccc4c(ccn4-c4cc(Cl)c(OCCCl)c(C#N)c4)c3)C2)C1 [Compound A163] in this work.
For CS(=O)(=O)NCc1ccc(-c2ccc3c(ccn3-c3cc(Cl)c(OCCCl)c(C#N)c3)c2)cc1 [Compound A164], the IC50 was > 2 µM.
In the case of CC(C)(c1ccc(OCc2ccnc(NS(C)(=O)=O)n2)cc1)c1cnc(N2CC3(CCC3)C2)c(C#N)c1 [Compound A166], the IC50 is reported as > 2 µM.
An IC50 of 0.5 to 2 µM was found for CS(=O)(=O)NC12CC(COc3ccc4c(ccn4-c4cc(Cl)c(OCC(F)(F)F)c(C#N)c4)c3)(C1)C2 [Compound A167] in this work.
For Cc1cc(-c2ccc3c(ccn3-c3cc(Cl)c(OCCCl)c(C#N)c3)c2)ccc1CNS(C)(=O)=O [Compound A168], the IC50 was < 0.5 µM.
In the case of CS(=O)(=O)NCC1CN(Cc2ccc3c(ccn3-c3cc(Cl)c(OCCCl)c(C#N)c3)c2)CCO1 (centres unmarked) [Compound A170], the IC50 is reported as > 2 µM.

Reference: patent US20220380378A1 (ESSA Pharma, Inc., priority 2021, published 2022)
